The target of data set [1] is human histamine 4 receptor (hH4R) (Homo sapiens (Human), UniProt Q9H3N8). In words: Binding affinity of human histamine 4 receptor (hH4R), [3H] labeled histamine displacement. To be noted: hH4R-overexpressed cell membrane, [3H] histamine. The essentials:
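Membranes of hH4R-overexpressing cells (25 μg) incubated with compound and [3H]histamine (diluted to 1 μM before addition) for 30 min at 27° C. Non-specific binding defined with histamine (100 μM before addition); bound radioligand collected by filtration on PEI-presoaked glass fibre, washed with 50 mM Tris-HCl pH 7.4, counted by scintillation (CPM).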

A short description of data set [2]: Solubility in artificial gastrointestinal tract solution. It counts as physicochemical. To be noted: artificial gastrointestinal tract solution, thermodynamic from solid. An outline of the steps: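 Two media were used: pH 1.2 NaCl/HCl with Triton X-100, and pH 6.5 phosphate buffer with sodium taurocholate and lecithin. Heated sample solutions were filtered to remove undissolved compound, diluted 1:1 with CH3CN, and solubility was measured by liquid chromatography.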

For data set [3] the following is noted: microsomes, 5 μM, pH 7.4.
For data set [4] the following is noted: microsomes, 5 μM, pH 7.4. The source holds these as a separate data set.

SMILES strings stand for the structures. Values after ≈ are worked out from the molar mass of the structure shown.

Sequence of human histamine 4 receptor (hH4R) (Q9H3N8 whole entry): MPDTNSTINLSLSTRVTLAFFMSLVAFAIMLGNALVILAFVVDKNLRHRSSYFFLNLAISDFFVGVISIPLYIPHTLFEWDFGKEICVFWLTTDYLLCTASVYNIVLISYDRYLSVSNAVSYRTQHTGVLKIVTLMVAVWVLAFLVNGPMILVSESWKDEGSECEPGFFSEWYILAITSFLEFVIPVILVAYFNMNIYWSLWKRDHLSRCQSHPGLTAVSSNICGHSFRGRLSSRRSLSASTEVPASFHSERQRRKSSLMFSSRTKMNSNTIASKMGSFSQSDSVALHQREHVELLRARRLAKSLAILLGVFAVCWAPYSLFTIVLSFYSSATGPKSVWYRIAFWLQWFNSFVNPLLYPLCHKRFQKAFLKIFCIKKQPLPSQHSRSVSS

For orientation: IC50 means the concentration that inhibits the measured activity by half. Lower therefore signals inhibition by little substance. The term solubility denotes the dissolved amount per volume that the medium holds. Low readings indicate a poorly soluble substance, high ones a readily soluble substance. `Clc1cnc2nc(N3CCN4CCCC4C3)c3nncn3c2c1` (centres unmarked) [Compound 29, 8-Chloro-4-(hexahydropyrrolo[1,2-a]pyrazin-2(1H)-yl)pyrido[2,3-e][1,2,4]triazolo[4,3-a]pyrazine] had a half-inhibitory concentration (IC50) in data set [1] of 49 nM. The compound further came in with a solubility at 1 h in data set [2] (fassgf or other biorelevant, first solution pH 1.2, 2 mg/mL sample, 37° C. 1 hour) of 1560 µg/mL (≈ 4.73 mM). In addition, in data set [2] (fassif, second solution pH 6.5, 2 mg/mL sample, 37° C. 2 hours), the concentration in solution (solubility at 2 h) was 1990 µg/mL (≈ 6.04 mM). The “Metabolic stability (CLh. int), Mouse” value in data set [3] is 12070 µL/min/mg. Further, the “Metabolic stability (CLh. int), Human” value in data set [4] was found to be 3950 µL/min/mg.

The values above are taken from patent publication US9586959B2, “Substituted tricyclic heterocycles as histamine 4 receptor inhibitors” (C&C RESEARCH LABORATORIES, priority 2011, dated 2017).
